Like-named read-outs stand apart in the source and are kept apart here.
Key:
[1] = target: human ether-a-go-go related gene (hERG) channel (Homo sapiens (Human), UniProt Q12809); assay: hERG test (whole cell patch clamp, IKr); type: cell-based; settings: 3 μM, CHO cells expressing hERG, tail peak current
Source text: (§1) Test Example 10: hERG Test
(§2) For the purpose of assessing risk of an electrocardiogram QT interval prolongation of the compound of the present invention, effects of the compound of the present invention on delayed rectifier K+ current (IKr), which plays an important role in the ventricular repolarization process, was studied using CHO cells expressing human ether-a-go-go related gene (hERG) channel.
(§3) After a cell was retained at a membrane potential of −80 mV by whole cell patch clamp method using an automated patch clamp system (QPatch; Sophion Bioscience A/S) and gave a leak potential of −50 mV, IKr induced by depolarization pulse stimulation at +20 mV for 2 seconds and, further, repolarization pulse stimulation at −50 mV for 2 seconds, was recorded. After the generated current was stabilized, extracellular solution (NaCl: 145 mmol/L, KCl: 4 mmol/L, CaCl2): 2 mmol/L, MgCl2: 1 mmol/L, glucose: 10 mmol/L, HEPES (4-(2-hydroxyethyl)-1-piperazineethanesulfonic acid): 10 mmol/L, pH=7.4), in which the compound of the present invention had been dissolved at an objective concentration in the extracellular solution, was applied to the cell at room temperature for 7 minutes or more. From the recording IKr, an absolute value of the tail peak current was measured based on the current value at the resting membrane potential using analysis software (QPatch Assay software; Sophion Bioscience A/S). Further, the % inhibition of tail peak current for the compound of the present invention relative to the tail peak current after application of the solution (0.1% dimethyl sulfoxide solution) was calculated to assess influence of the compound of the present invention on IKr.

[2] = target: human recombinant dopamine D2 receptor (Homo sapiens (Human), UniProt P14416); assay: Test of binding inhibition for dopamine D2 receptor ([3H]-Methylspiperone SPA); settings: Jump-In HEK cell membranes, read-out: hD2_Ki
human recombinant dopamine D2 receptor, sequence (P14416 whole entry): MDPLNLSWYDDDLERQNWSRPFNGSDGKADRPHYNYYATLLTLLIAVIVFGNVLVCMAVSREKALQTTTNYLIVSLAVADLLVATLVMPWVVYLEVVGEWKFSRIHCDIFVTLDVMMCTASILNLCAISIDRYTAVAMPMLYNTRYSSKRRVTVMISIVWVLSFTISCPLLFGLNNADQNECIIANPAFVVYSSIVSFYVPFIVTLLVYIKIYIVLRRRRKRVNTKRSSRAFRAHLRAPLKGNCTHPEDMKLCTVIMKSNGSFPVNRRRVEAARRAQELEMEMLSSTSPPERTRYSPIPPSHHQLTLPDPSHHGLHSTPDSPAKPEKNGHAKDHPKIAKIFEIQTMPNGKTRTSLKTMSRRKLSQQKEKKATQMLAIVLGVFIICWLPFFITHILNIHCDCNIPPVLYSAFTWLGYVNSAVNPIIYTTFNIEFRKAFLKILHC
Method in brief: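 Incubation was 120 min at 25° C. with human recombinant D2 membranes from Jump-In HEK cells (2 μg/well), WGA SPA beads (0.2 mg/well) and [3H]-Methylspiperone as radioligand.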

[3] = target: human recombinant dopamine D3 receptor (Homo sapiens (Human), UniProt P35462); assay: Test of binding inhibition for dopamine D3 receptor ([3H]-Methylspiperone SPA); settings: Jump-In HEK cell membranes, 2 nM [3H]-Methylspiperone, 120 min at 25° C.; read-out: hD3_Ki
human recombinant dopamine D3 receptor, sequence (P35462 whole entry): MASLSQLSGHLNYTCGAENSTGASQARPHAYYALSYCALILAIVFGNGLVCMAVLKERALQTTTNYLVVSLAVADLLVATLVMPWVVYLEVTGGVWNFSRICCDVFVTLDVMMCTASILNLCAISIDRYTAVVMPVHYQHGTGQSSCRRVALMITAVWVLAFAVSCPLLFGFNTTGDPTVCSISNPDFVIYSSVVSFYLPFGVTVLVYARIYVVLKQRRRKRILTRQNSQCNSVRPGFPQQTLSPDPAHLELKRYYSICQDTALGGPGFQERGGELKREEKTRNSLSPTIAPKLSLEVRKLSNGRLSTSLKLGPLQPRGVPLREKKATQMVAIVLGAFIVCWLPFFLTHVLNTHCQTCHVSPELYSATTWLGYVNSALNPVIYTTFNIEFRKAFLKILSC
Method in brief: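 SPA radioligand binding on Jump-In HEK membranes expressing human D3 receptor (4 µg/well) with 2 nM [3H]-methylspiperone (final), incubated 120 min at 25 °C. Non-specific binding defined with 10 µM butaclamol. Percent inhibition computed against total and non-specific binding; Ki from dose-response curves.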

hERG channel (IKr) = hERG channel (IKr) (Homo sapiens (Human), UniProt Q12809); assay: hERG test (whole cell patch clamp, IKr); type: cell-based; settings: human, CHO cells expressing hERG channel, pH 7.4, 3 μM, tail peak current
hERG channel (IKr), sequence (Q12809 whole entry): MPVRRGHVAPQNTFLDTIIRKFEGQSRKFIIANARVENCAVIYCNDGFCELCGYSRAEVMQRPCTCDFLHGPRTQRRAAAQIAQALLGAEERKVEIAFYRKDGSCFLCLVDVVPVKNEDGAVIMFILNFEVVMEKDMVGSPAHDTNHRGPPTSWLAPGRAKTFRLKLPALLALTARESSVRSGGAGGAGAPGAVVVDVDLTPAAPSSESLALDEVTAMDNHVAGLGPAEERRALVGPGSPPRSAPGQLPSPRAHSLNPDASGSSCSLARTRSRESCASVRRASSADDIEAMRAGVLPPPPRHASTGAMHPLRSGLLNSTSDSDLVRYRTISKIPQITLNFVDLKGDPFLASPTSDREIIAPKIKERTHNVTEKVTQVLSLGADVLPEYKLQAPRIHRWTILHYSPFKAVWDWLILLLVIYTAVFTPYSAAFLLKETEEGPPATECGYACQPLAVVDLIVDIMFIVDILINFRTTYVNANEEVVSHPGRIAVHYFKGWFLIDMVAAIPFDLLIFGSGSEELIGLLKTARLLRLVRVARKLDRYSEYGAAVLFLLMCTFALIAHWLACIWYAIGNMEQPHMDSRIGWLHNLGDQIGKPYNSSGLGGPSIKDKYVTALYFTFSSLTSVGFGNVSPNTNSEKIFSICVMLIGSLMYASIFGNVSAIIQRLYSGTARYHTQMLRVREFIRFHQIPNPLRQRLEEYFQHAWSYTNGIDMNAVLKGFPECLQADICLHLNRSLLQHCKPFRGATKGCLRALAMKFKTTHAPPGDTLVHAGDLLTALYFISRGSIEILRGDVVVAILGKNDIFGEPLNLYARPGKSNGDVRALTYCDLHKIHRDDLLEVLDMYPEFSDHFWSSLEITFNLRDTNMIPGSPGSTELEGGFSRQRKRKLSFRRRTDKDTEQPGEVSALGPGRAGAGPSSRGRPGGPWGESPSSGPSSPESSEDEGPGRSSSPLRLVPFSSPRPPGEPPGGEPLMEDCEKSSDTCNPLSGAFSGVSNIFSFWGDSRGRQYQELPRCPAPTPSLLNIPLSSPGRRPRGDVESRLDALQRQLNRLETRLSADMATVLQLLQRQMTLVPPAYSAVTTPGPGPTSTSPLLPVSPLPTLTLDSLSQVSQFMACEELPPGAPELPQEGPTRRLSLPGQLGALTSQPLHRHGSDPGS
Source text: as §1, §2, §3

[4] = target: human MDR1-expressing cells (Homo sapiens (Human), UniProt P08183); assay: P-gp substrate test (Transwell, MDR1-expressing cells vs parent cells); type: in vitro ADME; settings: efflux ratio of MDR1-expressing cells compared with parent cells
human MDR1-expressing cells, sequence (P08183 whole entry): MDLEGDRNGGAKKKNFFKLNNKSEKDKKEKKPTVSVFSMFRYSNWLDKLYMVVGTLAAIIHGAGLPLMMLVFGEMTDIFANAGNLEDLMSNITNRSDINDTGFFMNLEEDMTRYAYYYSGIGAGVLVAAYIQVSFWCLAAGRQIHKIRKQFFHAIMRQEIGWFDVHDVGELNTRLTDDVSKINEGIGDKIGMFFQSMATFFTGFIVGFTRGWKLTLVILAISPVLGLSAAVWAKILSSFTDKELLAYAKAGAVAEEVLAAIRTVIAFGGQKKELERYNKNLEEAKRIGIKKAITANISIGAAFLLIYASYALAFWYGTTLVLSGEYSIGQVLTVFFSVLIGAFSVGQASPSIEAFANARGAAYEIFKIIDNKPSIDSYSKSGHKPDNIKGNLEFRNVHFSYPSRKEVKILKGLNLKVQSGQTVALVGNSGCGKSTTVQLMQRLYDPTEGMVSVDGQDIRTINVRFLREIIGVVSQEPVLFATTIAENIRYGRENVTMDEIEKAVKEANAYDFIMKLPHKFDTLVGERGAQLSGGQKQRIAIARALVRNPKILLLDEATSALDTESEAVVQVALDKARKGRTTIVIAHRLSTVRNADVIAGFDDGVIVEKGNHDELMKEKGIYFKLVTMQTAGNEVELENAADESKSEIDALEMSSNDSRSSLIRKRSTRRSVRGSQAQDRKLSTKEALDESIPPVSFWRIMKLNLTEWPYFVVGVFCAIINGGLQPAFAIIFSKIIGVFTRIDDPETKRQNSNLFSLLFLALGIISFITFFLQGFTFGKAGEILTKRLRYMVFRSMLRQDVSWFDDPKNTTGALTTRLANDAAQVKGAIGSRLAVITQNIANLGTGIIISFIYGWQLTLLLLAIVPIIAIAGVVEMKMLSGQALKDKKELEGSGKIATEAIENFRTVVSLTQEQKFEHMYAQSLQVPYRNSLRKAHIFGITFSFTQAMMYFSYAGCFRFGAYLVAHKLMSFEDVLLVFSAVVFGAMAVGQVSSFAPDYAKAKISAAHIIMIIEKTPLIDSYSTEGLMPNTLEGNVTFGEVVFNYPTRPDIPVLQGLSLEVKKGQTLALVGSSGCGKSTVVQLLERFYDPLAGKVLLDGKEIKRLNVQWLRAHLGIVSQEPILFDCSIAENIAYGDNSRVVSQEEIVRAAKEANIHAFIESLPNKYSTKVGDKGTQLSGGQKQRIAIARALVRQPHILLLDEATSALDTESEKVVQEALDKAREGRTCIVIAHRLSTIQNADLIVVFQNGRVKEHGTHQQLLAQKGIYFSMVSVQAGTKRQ
Experimental: Test Example 14: P-Gp Substrate Test The compound of the present invention was added to one side of Transwell (registered trademark, CORNING) where human MDR1-expressing cells or parent cells have been monolayer-cultured. The cells were reacted for a constant time. The membrane permeability coefficients from the apical side toward the basolateral side (A→B) and from the basolateral side toward the apical side (B→A) were calculated for the MDR1-expressing cells or the parent cells, and the efflux ratio (ER; ratio of the membrane permeability coefficients of B→A and A→B) values of the MDR1-expressing cells and the parent cells were calculated. The efflux ratio (ER values) of the MDR1-expressing cells and the parent cells were compared to confirm whether or not the compound of the present invention would be a P-gp substrate.

[5] = Solubility test (1% DMSO addition, JP-1 fluid or JP-2 fluid); type: physicochemical; settings: 25 °C, kinetic from dmso stock
Experimental: Test Example 11: Solubility Test The solubility of the compound of the present invention was determined under 1% DMSO addition conditions. A 10 mmol/L solution of the compound was prepared with DMSO. 2 μL of the solution of the compound of the present invention was respectively added to 198 μL of JP-1 fluid or JP-2 fluid, or 6 μL of the solution of the compound of the present invention was respectively added to 594 μL of JP-1 fluid or JP-2 fluid. The mixture was left standing for 16 hours at 25° C. (condition 1) or shaking at room temperature for 3 hours (condition 2), and the mixture was vacuum-filtered. The filtrates were diluted 10- or 100-fold with methanol/water=1/[…]) or acetonitrile/methanol/water=1/1/[…]/V), and concentrations in the filtrates were measured by the absolute calibration curve method using LC/MS or solid-phase extraction (SPE)/MS. The dilution rate or dilution solvent was changed as necessary. The composition of the JP-1 fluid was as below. Water was added to 2.0 g of sodium chloride and 7.0 mL of hydrochloric acid to reach 1000 mL. The composition of the JP-2 fluid was as below. Composition 1. 3.40 g of potassium dihydrogen phosphate and 3.55 g of anhydrous disodium hydrogen phosphate were dissolved in water to reach 1000 mL. Composition 2. 1 volume of water was added to 1 volume of the solution in which 3.40 g of potassium dihydrogen phosphate and 3.55 g of anhydrous disodium hydrogen phosphate were dissolved in water to reach 1000 mL.

[6] = 1.2 nM [3H]-Methylspiperone, 120 min at 25° C.
[7] = pH 1.2, simulated gastric fluid, JP-1 fluid, read-out: Solubility JP-1
[8] = pH 6.8, aqueous buffer, JP-2 fluid, read-out: Solubility JP-2

human ether-a-go-go related gene (hERG) channel, sequence (Q12809 whole entry): as the sequence (Q12809 whole entry) above

Row | Compound | hERG inhibition(%) at 3 μM [1] [%] | Ki [2, 6] [nM] | Ki [3] [nM] | inhibition at 3 µM (hERG channel (IKr)) [%] | P-gp ER ratio [4] | solubility [5, 7] [µM] | solubility [5, 8] [µM] | Ki ([2]; [3H]-Methylspiperone 1.2 nM) [nM]
1 | CC(Oc1nc2c(s1)CCN(CC[C@H]1CC[C@H](NC(=O)c3cccc4nn(C)cc34)CC1)CC2)C(F)F (single isomer, unassigned) [Example I-119] | 23.1 | 1200 | 0.11 | – | – | – | – | –
2 | Cn1ncc(CC(=O)N[C@H]2CC[C@H](CCN3CCc4sc(OCC(C)(F)F)nc4C3)CC2)n1 [Example I-005] | – | 720 | 0.63 | 15.3 | 1.5 | – | – | –
3 | Cn1ncc(CC(=O)N[C@H]2CC[C@](F)(CCN3CCc4ccc(OCC(F)F)nc4CC3)CC2)n1 [Example I-031] | – | 800 | 0.19 | 23.8 | 1.5 | – | – | –
4 | CC[C@@H](C)Oc1ccc2c(n1)CCN(CC[C@H]1CC[C@H](NC(=O)Cc3cnn(C)n3)CC1)CC2 [Example I-111] | – | 1600 | 0.17 | 14.6 | – | – | – | –
5 | Cn1c(C(=O)N[C@H]2CC[C@](F)(CCN3CCc4nc(OCCC(F)(F)F)sc4CC3)CC2)cccc1=O [Example I-113] | – | > 2200 | 0.87 | 6.89 | – | – | – | –
6 | Cc1nc(CC(=O)N[C@H]2CC[C@](F)(CCN3CCc4nc(OCCC(F)(F)F)sc4CC3)CC2)no1 [Example I-114] | – | > 2200 | 0.59 | 29 | – | – | – | –
7 | COC(CN1CCc2sc(OCC(F)(F)F)nc2C1)[C@H]1CC[C@H](NC(=O)c2cccc3nn(C)cc23)CC1 (stereo partly shown) [Example I-186] | – | 270 | 0.22 | 16.8 | – | – | – | –
8 | Cn1cc2c(C(=O)NC34CCC(CCN5CCc6nc(OCC(F)(F)F)sc6CC5)(CC3)CC4)cccc2n1 [II-8] | – | – | 0.084 | – | – | > 50 | > 50 | 1600
9 | Cc1ncc(OCC(=O)NC23CCC(CCN4CCc5nc(OCC(F)(F)F)sc5CC4)(CC2)CC3)cn1 [II-9] | – | – | 0.12 | – | – | > 50 | > 50 | 960
10 | Cn1cc2c(C(=O)NC34CCC(CCN5CCc6nc(OCC(F)(F)F)sc6CC5)(CC3)OC4)cccc2n1 [II-11] | – | – | 0.23 | – | – | > 50 | > 50 | > 2300
11 | Cc1ncc(OCC(=O)NC23CCC(CCN4CCc5nc(OCC(F)(F)F)sc5CC4)(CC2)OC3)cn1 [II-12] | – | – | 0.49 | – | – | > 50 | > 50 | 1500
12 | Cn1ncc(CC(=O)N[C@H]2CC[C@](F)(CCN3CCc4nc(OCC(F)(F)F)sc4CC3)CC2)n1 [I′-37] | – | – | 0.18 | 19.6 | – | – | – | 1600
13 | Cn1ncc(CC(=O)N[C@H]2CC[C@H](CCN3CCc4nc(OCC(C)(F)F)sc4CC3)CC2)n1 [I′-38] | – | – | 0.043 | 20.6 | – | – | – | 1000
14 | Cn1ncc(CC(=O)N[C@H]2CC[C@](F)(CCN3CCc4nc(OCC(C)(F)F)sc4CC3)CC2)n1 [I′-39] | – | – | 0.49 | 17.3 | 1.9 | – | – | 960
15 | Cn1ncc(CC(=O)N[C@H]2CC[C@](F)(CCN3CCc4nc(OCC(F)F)sc4CC3)CC2)n1 [I′-41] | – | – | 0.49 | 24 | – | – | – | 1900
